Data published in publication PMC10385865, “Synthesis and Anticancer Activity of Novel Dual Inhibitors of Human Protein Kinases CK2 and PIM-1” (Pharmaceutics, 2023).
Like-named read-outs stand apart in the source and are kept apart here.

Experiments:
MCF-7 (breast carcinoma) = experiment: MTT-based viability assay, MCF-7; type: cell-based, human; conditions: for IC50: Homo sapiens, read-out: IC50 MCF-7
Description: (§1) After incubation with the tested compounds, an MTT test was performed as described previously. Optical densities were measured at 570 nm using a BioTek microplate reader (BioTek Instruments, Inc., Winooski, VT, USA). All measurements were carried out in a minimum of three biological replicates.
(§2) . The IC50 values describing the half-maximal effective concentration of each tested compound were calculated and are summarized in Table 2. […].

K-562 cells = experiment: Acridine orange staining, microscopy and fluorescence intensity assay (autophagy); type: cell-based, human; conditions: for induction of autophagy (in words): BCR-ABL-positive CML cell line K-562, 48 h; for red fluorescence (red-stained lysosomes), AO, % of the control: K-562, 48 h, 4 at both concentrations, rac-6 at 15 µM, not statistically significant
Description: K-562 cells were seeded in 6-well plates at 2.5 × 10^5/mL and subjected to the tested compounds. After 48 h of incubation, cells were centrifugated at 200× g at 4 °C for 5 min, subsequently suspended in PBS containing 2 µg/mL AO and Hoechst 33342, and incubated at 37 °C for 20 min in the dark. Subsequently, cells were centrifugated at 200× g at 4 °C for 5 min. Then, 5 µL of the sample was mounted on a glass slide and covered with a coverslip and examined under a Nikon ECLIPSE Y-TV55 fluorescent microscope.
K-562 cells were seeded in 6-well plates at 2.5 × 10^5/mL and subjected to the tested compounds. After 48 h of incubation, cells were centrifugated at 200× g at 4 °C for 5 min, subsequently suspended in PBS containing 2 µg/mL AO and Hoechst 33342, and incubated at 37 °C for 20 min in the dark. Subsequently, cells were centrifugated at 200× g at 4 °C for 5 min, and 150 µL of the sample was measured on dark plates (Sarstedt). The fluorescence intensity of AO at Ex. 502 nm/Em. 520–524 nm (aggregated or DNA complexed form), Ex. 457 nm/Em. 630–644 nm (aggregated or RNA complexed form), Ex. 540 nm/Em. 640–660 nm (red-stained lysosomes), and Ex. 488 nm/Em. 540–550 nm (yellowish stained lysosomes) and that of Hoechst (nuclei, Ex. 361 nm/Em. 497 nm) in K-562 cells was measured with a Synergy H4 Hybrid Multi-Mode Microplate Reader (BioTek Instruments, Inc., Winooski, VT, USA). The data were normalized to the intensity of Hoechst (nuclei, Ex. 361 nm/Em. 497 nm) in comparison to control cells serving as the reference point, showing 100%.
In order to conclude the mechanism of death of K-562 cells treated with the tested active agents, microscopic observations and a fluorescence intensity assay were performed after staining the cells with an acridine orange (AO). The employed dye is a cell-permeable fluorophore that can be protonated and trapped in acidic vesicular organelles (AVOs). Its metachromatic shift to red fluorescence is concentration-dependent, and therefore, acridine orange fluoresces red in AVOs, such as autolysosomes, can be detected quantitatively. In addition, OA has the ability to intercalate between the nitrogenous bases of the nucleic acids present in cells and their labeling. DNA or RNA is digested during the autophagy process, and the resulting damage makes it easier to bind with OA molecules.
After 48 h of treatment with 4 and rac-6, K-562 cells, were subjected to staining with Hoechst (nuclei staining) and AO, followed by fluorescent microscopy and a fluorescence intensity measurement. […] Since the obtained microscopic data were inconclusive, we additionally measured fluorescence intensity of AO at four different wavelengths, i.e., Ex. 502 nm/Em. 520–524 nm (aggregated or DNA complexed form), Ex. 457 nm/Em. 630–644 nm (aggregated or RNA complexed form), Ex. 540 nm/Em. 640–660 nm (red-stained lysosomes), and Ex. 488 nm/Em. 540–550 nm (yellowish stained lysosomes) (Figure 6b).

[1] = tested on: K-562 (chronic myelogenous leukemia); experiment: MTT-based viability assay, K-562; type: cell-based, human; conditions: for IC50: Homo sapiens, read-out: IC50 K-562
Description: as §1, §2

PIM-1 = target: T1, PIM-1 (Homo sapiens, UniProt P11309); experiment: P81 filter isotopic (radiometric) kinase assay, PIM-1; type: biochemical; conditions: substrate peptide […], Ki from IC50 by Cheng–Prusoff
T1 construct: made in house
Description: The obtained compounds were tested for their inhibitory activity toward human CK2α, human CK2 holoenzyme, and PIM-1 using a P81 filter isotopic assay as described previously. […] The experimental data were fitted to the sigmoidal dose–response equation, i.e., (variable slope) Y = Bottom + (Top-Bottom)/(1 + 10^((LogIC50−X)∗HillSlope), in GraphPad Prism (Prism 9, v. 9.0.1).
Inhibition of the human CK2 catalytic subunit (CK2α), CK2 holoenzyme (CK2α2β2), and PIM-1 by the newly obtained compounds was evaluated using a radiometric assay (Table 1, Figure S2). The synthetic peptide […] was used as the substrate of CK2, and peptide […] was used as the substrate of PIM-1. The values of the inhibition constant (Ki) were calculated using the Cheng–Prusoff equation: Ki = IC50/(1 + [S]/Km).

CCRF-CEM cells = experiment: Cell cycle progression by flow cytometry (PI), CCRF-CEM; type: cell-based, human; conditions: 48 h
Description: MCF-7, CCRF-CEM, and K-562 cells were cultured in 6-well plates and treated with the tested compounds for 48 h. After exposure to the compounds, the cells were collected and washed with cold PBS and fixed at −20 °C in 70% ethanol for at least 24 h. Subsequently, cells were washed in PBS and stained with 50 μg/mL PI (propidium iodide) and 100 μg/mL RNase solution in PBS supplemented with 0.1% v/v Triton X-100 for 30 min in the dark at RT. Cellular DNA content was determined by flow cytometry employing a BD FACSCanto II flow cytometer (BD Biosciences, San Jose, CA, USA). The obtained DNA histograms were analyzed using MacCycle software (Phoenix Flow Systems, San Diego, CA, USA) for evaluation of the distribution of the cells in different phases of the cell cycle.
Since CK2 controls cell cycle progression and, consequently, its inhibition can affect the distribution of cells in the individual phases of the cell cycle, we tested the cell cycle progression in CCRF-CEM, K-562, and MCF-7 cells after treatment with 4 and rac-6. Representative plots DNA histograms with the calculations of cell percentages in each phase of the cell cycle are depicted in Figure 7. […] Accumulation of cells in sub-G1 indicates DNA degradation, as often seen in apoptotic cells, confirming the results obtained with annexin V and PI staining.

MCF-7 cells = experiment: Annexin V/propidium iodide apoptosis, flow cytometry, MCF-7; conditions: for viability at 5 µM / viability at 10 µM: Homo sapiens, MCF7, 48 h, read-out: Viable; for Early apoptosis / Late apoptosis / Necrosis: mean±SD
Description: MCF-7 cells were seeded in 6-well plates at 1.2 × 10^5 cells/well, whereas CCRF-CEM and K-562 cells were seeded in 24-well plates at a density of 2 × 10^5/mL. Cells were treated with the tested compounds used in 5 µM and 10 µM concentrations. Then, the plates were incubated for 48 h. After exposure to the examined compounds, the cells were collected and centrifugated at 200× g at 4 °C for 5 min, washed twice in cold phosphate-buffered saline (PBS), and subsequently suspended in binding buffer at 1 × 10^6 cells/mL. Subsequently, 100-μL aliquots of the cell suspension were labeled according to the instructions of the respective manufacturer’s kit. Briefly, annexin V-fluorescein isothiocyanate and propidium iodide (BD Biosciences, Pharmingen, San Diego, CA, USA) were added to the cell suspension, and the mixture was vortexed, then incubated for 15 min at RT in the dark. A cold binding buffer (400 μL) was then added, and the cells were vortexed again and kept on ice. Flow cytometric measurements were performed within 1 h after labeling. Viable, necrotic, early, and late apoptotic cells were detected by flow cytometry using a BD FACSCanto II flow cytometer and analyzed using BD FACSDiva operating software (BD Biosciences, San Jose, CA, USA).

T1 sequence (P11309 whole entry): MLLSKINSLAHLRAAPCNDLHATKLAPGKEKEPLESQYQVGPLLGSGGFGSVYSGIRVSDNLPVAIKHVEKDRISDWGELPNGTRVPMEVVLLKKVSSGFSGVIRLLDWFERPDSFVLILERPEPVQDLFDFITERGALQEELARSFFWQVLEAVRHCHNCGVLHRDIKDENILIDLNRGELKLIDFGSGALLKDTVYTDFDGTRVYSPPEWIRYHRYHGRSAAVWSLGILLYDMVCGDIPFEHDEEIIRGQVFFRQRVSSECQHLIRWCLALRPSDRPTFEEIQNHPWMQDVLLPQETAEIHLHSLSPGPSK

Row | Compound | induction of autophagy (in words) (K-562 cells) | red fluorescence (red-stained lysosomes), AO, % of the control (K-562 cells) | Ki (PIM-1) [µM] | cell cycle arrest (phase, in words) (CCRF-CEM cells) | viability at 5 µM (MCF-7 cells) [%] | viability at 10 µM (MCF-7 cells) [%] | Early apoptosis (MCF-7 cells; MCF-7, 5 µM, 48 h) [%] | Late apoptosis (MCF-7 cells; MCF-7, 5 µM, 48 h) [%] | Necrosis (MCF-7 cells; MCF-7, 5 µM, 48 h) [%] | Early apoptosis (MCF-7 cells; MCF-7, 10 µM, 48 h) [%] | Late apoptosis (MCF-7 cells; MCF-7, 10 µM, 48 h) [%] | Necrosis (MCF-7 cells; MCF-7, 10 µM, 48 h) [%] | also measured
1 | OC(CNc1nc2c(Br)c(Br)c(Br)c(Br)c2[nH]1)C(F)(F)F (racemic) [rac-6, 1,1,1-Trifluoro-3-[(4,5,6,7-tetrabromo-1H-benzimidazol-2-yl)amino]propan-2-ol] | able to induce autophagy | up to 148 % of the control | 0.067 | G1-phase arrest | 79 ± 1.94 | 69.1 ± 13.1 | 1.18±1.08 | 10.96±1.63 | 8.94±1.14 | 3.53±5.45 | 19.05±7.40 | 8.28±1.69 | IC50 (MCF-7 (breast carcinoma); MCF7, MTT, 48 h): 9.66 ± 0.31 µM; SI (selectivity index) MCF-7 (MCF-7 (breast carcinoma); IC50 Vero/IC50 cancer cells): 2.11; red fluorescence (in words) (K-562 cells; K-562, 10 µM, 48 h): reduced; yellowish-stained lysosomes, AO fluorescence, % of the control (K-562 cells; K-562, 15 µM, 48 h, Ex. 488 nm/Em. 540–550 nm, normalized to Hoechst): 324 % of the control; IC50 ([1]; K562, MTT, 48 h): 17.7 ± 3.54 µM; SI (selectivity index) K-562 ([1]; IC50 Vero/IC50 cancer cells): 1.15; leukemia cells accumulated in G1 phase (maximum) (CCRF-CEM cells; 10 µM): 49%; induction of apoptosis (in words) (MCF-7 cells; MCF-7, 10 µM, 48 h, statistically significant result): induced apoptosis
2 | CN(C)c1nc2c(Br)c(Br)c(Br)c(Br)c2[nH]1 [Compound 4, 4,5,6,7-Tetrabromo-N,N-dimethyl-1H-benzimidazol-2-amine, reference compound] | able to induce autophagy | up to 148 % of the control | 0.052 | S-phase arrest | 79 ± 2.76 | 70.3 ± 3.36 | 0.98±0.62 | 8.44±1.47 | 11.62±2.01 | 1.80±1.31 | 15.94±3.58 | 11.96±2.46 | IC50 (MCF-7 (breast carcinoma); MCF7, 48 h): 14.7 ± 0.27 µM; IC50 ([1]; K562, 48 h): 22.5 ± 6.09 µM
